Experimental data published in article PMC12406664, “New derivatives of 6-nitrocoumarin-3-thiosemicarbazone exhibit improved antiparasitic activity in the placenta against Trypanosoma cruzi and Toxoplasma gondii” (Antimicrobial Agents and Chemotherapy, 2025).

Columns and labels:
[1] = tested on: T. cruzi trypomastigotes, Dm28 strain; assay: Resazurin viability assay on free T. cruzi trypomastigotes; conditions: Trypanosoma cruzi, 24 h, read-out: Viability T. cruzi (%)
Experimental: The reduction of resazurin sodium salt was used to determine the trypanocidal and toxoplasmicidal activity of the 6-nitrocoumarin-thiosemicarbazone hybrids 1–8. For this, treatment with the compounds was carried out for 24 h at a concentration of 100 µM.
NFX was used as a positive control for T. cruzi, and PMN was used for T. gondii. Untreated parasites served as a negative control. […] Subsequently, parasites with their respective conditions were transferred to a 96-well white fluorescence reading plate, adding resazurin at a final concentration of […] with 0.8 mM phenazine. The plate was incubated for 3 hours at 37°C in a humidified atmosphere with 5% CO2, and fluorescence measurements were taken using a microplate reader (Thermo Scientific Varioskan Flash) at excitation wavelengths of 560 nm and emission wavelengths of 590 nm.

[2] = tested on: T. gondii tachyzoites, RH strain; assay: Resazurin viability assay on free T. gondii tachyzoites; assay type: cell-based, Toxoplasma gondii
Description: Untreated parasites served as a negative control.

[3] = Cytotoxicity on cells (resazurin), EA.hy926; assay type: cell-based; conditions: human, EA.hy926 endothelial cells
Description: (§1) Triton X-100 was used as a positive control, and untreated cells served as a negative control. In addition, the maximum concentration of DMSO was used as a control for the method. […] The obtained values were expressed as IC50([88]).

[4] = Cytotoxicity on cells (resazurin), BeWo; assay type: cell-based; conditions: human, BeWo trophoblast cells
Description: as §1

[5] = tested on: T. gondii tachyzoites (strain RH); assay: Intracellular ROS generation (DCF probe) in T. gondii; assay type: cell-based, Toxoplasma gondii; conditions: compound at IC50, menadione 20 µM, 40 minutes, vs untreated control
Experimental: ROS detection was performed using the 2′,7′-dichlorodihydrofluorescein diacetate (DCFH2-DA) method ([45]). For the assay, Dm28c trypomastigotes and tachyzoites were seeded in 96-well plates at a density of 10⁶ parasites/mL. In contrast, BeWo cells were seeded at 5 × 10⁴ cells per well, using the previously described culture medium.
After incubation with 20 µM DCFH2-DA for 15 minutes at 37°C, the parasites were centrifuged at 3,500 × g, washed twice with PBS (pH 7.4), and subsequently transferred to Nunc 96-well fluorescence plates. Meanwhile, after 24 hours of incubation at 37°C and 5% CO₂, the culture medium of BeWo cells was replaced, and 20 µM DCFH2-DA solution was added, followed by a 15 minute incubation at 37°C. The cells were then washed with PBS at pH 7.4. As a positive control, 20 µM menadione was used, while the negative control consisted of culture medium without compounds.
Over time, the area under the fluorescence increase curve was determined using Origin 8 software (version 9.2), with normalization relative to the control. The results correspond to three independent experiments' mean ± standard deviation (SD).

[6] = tested on: T. gondii tachyzoites (strain RH); assay: ESR spin trapping with DMPO in T. gondii; assay type: cell-based, Toxoplasma gondii; conditions: compound about 1 mM, menadione 20 µM
Experimental: Each tested hybrid was dissolved in spectroscopy-grade DMSO at an approximate concentration of 1 mM and added to a mixture containing Trypanosoma cruzi (Dm28c strain) or Toxoplasma gondii at a density of 50 × 10⁶ trypomastigotes or tachyzoites per mL, along with DMPO at a final concentration of 250 mM. Menadione (20 µM) was used as a positive control.
All spectra were acquired on the same scale after 15 scans.

[7] = tested on: T. gondii (RH strain) in BeWo cells; assay: Infection of BeWo cells by T. gondii, infected cells counted by fluorescence microscopy; assay type: cell-based, Toxoplasma gondii; conditions: compound at IC50, untreated control 64 ± 6
Experimental: The effect of the compounds on the infection of BeWo trophoblast cells by T. gondii and T. cruzi was assessed. The DNA of T. gondii and T. cruzi was quantified in infected BeWo cells treated for 24 hours under two conditions: co-incubation and post-infection treatment. […] Fluorescence microscopy was employed to quantify the number of infected cells. The resulting images were analyzed using ImageJ software to count both infected and uninfected cells.
For the microscopic analysis of BeWo cells infected with T. cruzi, the cells were washed with PBS to remove the supernatant, fixed with 90% cold methanol, rewashed with PBS, and incubated for 5 minutes with 1 µg/mL—1 4,6-diamidino-2-phenylindole (DAPI) (Molecular Probes). To analyze BeWo cells infected with T. gondii, cells were fixed with 90% cold methanol, washed with PBS containing 0.05% Tween, and blocked using 3% BSA for 1 hour at 37°C. Then, they were incubated with the primary monoclonal antibody Toxoplasma gondii (TP3): sc-52255 at a dilution of 1:500 with 1% BSA overnight at 4°C. Afterward, the samples were incubated with the FITC anti-mouse IgG secondary antibody at a dilution of 1:100 with 1% BSA for 1 hour at 37°C. Finally, they were washed with PBS containing 0.05% Tween and incubated for 5 minutes with DAPI. Subsequently, the sections were mounted in Vectashield (ScyTek ACA). Sections for the analysis of cell infection by T. cruzi and T. gondii were observed under an epifluorescence microscope (Motic BA 310), and images were captured with a Motic 5 camera. T. cruzi amastigotes were identified by their morphology, including nuclear size and the presence of a kinetoplast, and were analyzed and quantified using ImageJ. At least 500 cells per condition were analyzed, and infected and non-infected cells were counted for every 100 cells ([35], [70]).
(§2) Cells or HPE were exposed to parasites. […] The following treatment conditions were used in both infection models. […] Untreated cells or HPE served as a negative control, and the compounds’ activity was compared with the reference drugs (NFX and PMN).

[8] = tested on: HPE exposed to T. gondii tachyzoites; assay: Histopathology of HPE infected with T. gondii; assay type: cell-based, human; conditions: IC50 concentration
Description: as §2

[9] = tested on: human placental explants (HPE); assay: Histopathology of uninfected HPE exposed to the compounds alone; conditions: explants incubated only with the compound, 24 h, IC50 concentration
Experimental: The HPE was fixed in 10% formaldehyde in 0.1 M phosphate buffer (pH 7.3) for 24 h, dehydrated in alcohol, clarified in xylene, embedded in paraffin, and sectioned at 3 µm. Paraffin histological sections were stained with hematoxylin-eosin for routine histological analysis, Picro Sirius red, and trichromic Masson for collagen histochemistry. Sections for the histological analysis were observed under an optical microscope (Leica DM500) and images were captured with a Leica ICC50 W camera ([7], [91]).

[10] = Lipophilicity by reversed-phase TLC (RM); conditions: reverse phase-C18, DMSO/phosphate buffer pH 7.4 (70:30 vol/vol), RM = log[(1/Rf) – 1]
Experimental: Lipophilicity was studied by reversed-phase TLC experiments. Precoated TLC plates SIL RP-18W/UV254 were used and eluted with DMSO/physiological serum (70:30, vol/vol). Stock solutions were prepared in pure DMSO (Aldrich) prior to use. The plates were developed in a closed chromatographic tank, dried, and the spots were located under UV light. The Rf values were averaged from three determinations and converted into RM values via the relationship: RM = log [(1/Rf)−1]

Compound `C/C(=N\NC(N)=S)c1c(O)c2cc([N+](=O)[O-])ccc2oc1=O` [Compound 1, (E)−2-(1-(4-hydroxy-6-nitro-2-oxo-2H-chromen-3-yl)ethylidene)hydrazine-1-carbothioamide] has a viability at 100 µM [1] of 85.5 ± 11.3%, an IC50 ([2]; Toxoplasma gondii, extracellular tachyzoites RH strain, 24 h, resazurin) of 17.3 ± 0.5 µM and a viability at 100 µM ([2]; Toxoplasma gondii, tachyzoites RH, 100 µM, 24 h) of 24.3 ± 10.4%. For the same compound, the “SI = BeWo CC50/parasite IC50” value ([2]; parasite T. gondii) was 22.3, the “SI = EA.hy926 CC50/parasite IC50” value ([2]; parasite T. gondii) was greater than 23.1 and the CC50 at 24 h [3] was greater than 400 µM. For the same compound, the CC50 at 24 h [4] was 386.9 ± 1 µM, the “ROS generation (DCF fluorescence)” value [5] was “increase in ROS levels, albeit lower than the positive control” and the “radical species detected by ESR spin trapping (DMPO)” value [6] was “formation of only two spin adducts”. The “Infected cells (%)” value ([7]; co-incubation 24 h) was 32 ± 7%, the “Infected cells (%)” value ([7]; post-infection treatment 24 h) was 52 ± 4% and the “tissue damage in infected HPE (histopathology)” value ([8]; co-incubation) was “prevented tissue damage induced by tachyzoites”. For the same compound, the “tissue damage in infected HPE (histopathology)” value ([8]; post-infection treatment) was “did not reduce the parasitic load or mitigate tissue damage”, the “tissue damage caused by the compound itself in HPE” value [9] was “neither compound induced tissue damage” and the “Lipophilicity (RM)” value [10] was 0.00.
